In patent publication US20250152559A1, “METHODS FOR TREATING MYC-AMPLIFIED CANCER” (The Governing Council of the University of Toronto, priority 2023, published 2025):

What was measured:
SU_MB002 = assay: PrestoBlue cell viability, 72-hour treatment, limiting dilution; assay type: cell-based, human; details: SU_MB002, media with uridine hydrochloride (100 μM)
Procedure: SU_MB002, NSC194, NSC197 and NSC201FT, MBT375 and MED411FHTC were maintained in Neurocult Complete (NCC) media (Stem Cell Technologies; catalogue #05751). D425 and D458 were maintained in Dulbecco's […] (DMEM) containing 10% fetal bovine serum (FBS). HD-MB03 were maintained in NCC containing 10% FBS. All cell lines were conditioned in NCC for a minimum of 48 hours before experimentation. SU_MB002 and HD-MB03 G3MB-MYC PDOX were obtained from collaborators as kind gifts and are frequently passaged in vivo. SU_MB002, a treatment-refractory group 3 MB acquired at autopsy was received from Dr. Yoon-Jae Cho. Dr. Till Milde provided HD-MB03, a treatment-naïve group 3 MBs. ICB1299 group 4 MB cells were obtained as a gift from Silvia Marino's laboratory^62. MBT375 was established in-house from a surgical specimen of group 4 MB, which was engrafted in the cerebellum of mice for serial propagation. Nanostring genotyping was used to confirm group 4 medulloblastoma identity. MED411FHTC PDOX were procured from Dr. Olson's brain tumor research lab. D425 and D458 were obtained from the ATCC. All cell lines were fingerprint verified by short tandem repeat (STR) profiling. NSC194, NSC197 and NSC201FT were derived in-house from donor fetal brain tissues^63.
For assessment of viability, cells were seeded into 96-well plates at a density of 1,000 cells per well. Viability was measured by adding PrestoBlue™ diluted 1:10 (ThermoFisher Scientific; Catalogue #A13261) followed by a 4-hour incubation. Relative fluorescence intensity was determined via background correction. To assess tumorsphere forming capacity, cells were seeded at a low density (200 cells per well) and incubated for 3-5 days. Tumorspheres were manually counted thereafter.

[1] = tested on: SU_MB002 cells genomic DNA; assay: Differential methylation analysis (Illumina EPIC array); assay type: cell-based, human
Procedure: Illumina Human Infinium MethylationEPIC (EPIC) BeadChip (Illumina, CA, USA) array was performed at The Centre for Applied Genomics, The Hospital for Sick Children (Toronto) using the manufacturer's standard protocol.
Raw IDAT files (annotation: ilm10b4.hg19) were processed using R (Version 4.1.2) and quality control and normalization was performed using minfi^76. Intensity and density plots were generated, and no samples were removed from the analysis as the mean detection p-values for all probed genomic positions were <0.01 for each sample. Probes with mean detection p-values >0.01 across all samples were excluded. Probes mapping sex chromosomes, single nucleotide polymorphisms (SNPs), and cross-hybridisation probes were removed. Quantile normalization was performed, and density plots were generated before and after normalization. Differential analysis was completed with beta values of 768467 CpGs for 8 samples comparing BAY to DMSO at 48 h and 72 h using limma^77. P-values were adjusted for False Discovery Rate (FDR) using Benjamini and Hochberg method, and a 10% FDR and log FC of >|0.1| cut-off was used.
Differentially methylated positions (DMPs) were annotated using the USCS (UCSC_RefGene_Name, UCSC_RefGene_Group and Relation_to_Island) from the Infinium MethylationEPIC Manifest. The analysis was performed focusing on DMPs within promoter islands (considering TSS1500, TSS200, 5′UTR and 1st exon as promotor regions). Enrichment analysis of unique genes (using UCSC RefGene Name) identified within DMPs at promoter islands was performed using Enrichr (ENCODE TF ChIP-seq 2015)^43.

SU_MB002 PDOX = assay: Orthotopic PDOX model, tumor burden and survival; assay type: in vivo, mice; details: orthotopic SU_MB002, BAY R1
Procedure: The treatment-naïve, patient-derived cell line, HD-MB03, was orthotopically engrafted into immunocompromised mice. Four days later, tumors were readily detectible via bioluminescence imaging. Thereafter mice were randomized into three cohorts, which were treated with either the vehicle or one of two BAY treatment regimens (R1 and R2; FIG. 5B).
PDOX were generated by engrafting 25,000 tumor cells (both SU_MB002 and HD-MB03 cell lines), suspended in 5 μL PBS, directly into the mouse cerebrum. Flank xenografts were generated by engrafting 2,000,000 tumor cells suspended in a 100 μL solution of PBS/Matrigel® (1:1 v/v). For preclinical studies, cells were engineered to express enhanced firefly luciferase. […] Flank tumors were isolated at matched time points and formalin fixed for 48 hours, paraffin embedded (FFPE) and sectioned for follow-up analysis. Tumor area was manually measured in H&E-stained sections of FFPE tissues using ImageJ.
(§1) For imaging via the in vivo imaging system (IVIS), mice were sedated with isoflurane gas and then administered luciferin substrate (150 mg/kg in PBS) via subcutaneous injection. After 10 minutes, bioluminescent signal (photons per second; p/s) was quantified using Living Image software.

HD-MB03 flank xenograft = assay: Subcutaneous flank xenograft, IVIS, H&E and Ki67 IHC; assay type: in vivo, mice
Procedure: In parallel to these experiments, subcutaneous flank xenografts were engrafted into two cohorts of mice, which were treated with the vehicle or R2. […] To investigate the pharmacokinetics of BAY in vivo, its concentration in plasma and brain tissues of healthy mice was directly quantified using an LC-MS approach. BAY was detected in both brains and plasma of mice undergoing treatment, however the plasma concentrations exceeded those of the brain by approximately 10-fold (FIG. 5H-I). To determine whether treatment with BAY affects de novo pyrimidine biosynthesis in vivo, changes in pyrimidine metabolism were measured in the brain in comparison to tumor tissues from the flank (FIG. 5J-K). Although BAY treatment impacted de novo pyrimidine metabolism in vivo in both brain and tumor tissues, with a similar pattern observed in vitro (FIG. 4A), the effect size was stronger in peripheral tumor tissue in comparison to brain tissue. Such findings further reflect the limited capacity for BAY to accumulate within the brain.
To examine histological consequences of DHODH inhibition in vivo, the xenografts from the flanks of BAY- and vehicle-treated mice were surgically resected one day after administering the final dose.
FFPE tissues were sectioned onto slides and then deparaffinized prior to analysis. Samples were stained with H&E for histological examination. In parallel, sections were blocked in 5% BSA (anti-Ki67, anti-4E-BP1 Thr37/46, anti-DHODH) or 5% NGS (anti-EGR1) and stained with primary antibody at 4° C. overnight. […]
PDOX were generated by engrafting 25,000 tumor cells (both SU_MB002 and HD-MB03 cell lines), suspended in 5 μL PBS, directly into the mouse cerebrum. […] Tumor area was manually measured in H&E-stained sections of FFPE tissues using ImageJ.
as §1

SMILES: CCn1c(CO)nn(-c2cc(O[C@@H](C)C(F)(F)F)c(C(=O)Nc3c(F)cccc3Cl)cc2F)c1=O [BAY2402234]
- tumor cell proliferation and viability with uridine supplementation (SU_MB002): rescues
- DMPs in promoter islands ([1]; 48 h): 2/18
- differentially methylated positions (DMPs), BAY vs vehicle ([1]; 48 h of treatment): 18
- DMPs in promoter islands ([1]; 72 h): 123/751
- differentially methylated positions (DMPs), BAY vs vehicle ([1]; 72 h of treatment): 751
- overall survival (SU_MB002 PDOX): increased overall survival
- tumor burden (SU_MB002 PDOX): reduced tumor burden
- antitumoral response of flank tumors compared to orthotopic xenografts (HD-MB03 flank xenograft; HD-MB03 flank, R2): much stronger antitumoral response
- tumor cell density (H&E) (HD-MB03 flank xenograft; flank xenografts resected one day after final dose, vs vehicle): remarkably reduced
- Ki67 expression (IHC) in surviving tumor cells (HD-MB03 flank xenograft; residual flank xenograft tissues): reduction in Ki67 expression
